Assay results as given in US20210145000A1, “WEED CONTROL FROM APPLICATIONS OF PYRIDINE CARBOXYLIC ACID HERBICIDES AND ACETYL CoA CARBOXYLASE (ACCase) INHIBITORS” (Dow AgroSciences LLC, priority 2018, published 2021).

Key:
Assay in all cases: Postemergence herbicidal activity, greenhouse, visual injury
Format in all cases: in vivo
[1] = system: poinsettia (Euphorbia heterophylla, EPHHL)
Procedure: (§1) Seeds of the desired test plant species were planted in Sun Gro MetroMix® 306 planting mixture, which typically has a pH of 6.0 to 6.8 and an organic matter content of about 30 percent, in plastic pots with a surface area of 103.2 square centimeters (cm^2). When required to ensure good germination and healthy plants, a fungicide treatment and/or other chemical or physical treatment was applied. The plants were grown for 7-36 days (d) in a greenhouse with an approximate 14-hour (h) photoperiod which was maintained at about 23° C. during the day and 22° C. during the night. Nutrients and water were added on a regular basis and supplemental lighting was provided with overhead metal halide 1000-Watt lamps as necessary. The plants were employed for testing when they reached the second or third true leaf stage.
(§2) An emulsifiable concentrate (EC) formulation containing Compound 1 at 100 gai/L was prepared by combining Compound 1 with 1-butyl-2-pyrrolidinone (Tamisolve NxG; 360.5 g/L), benzyl acetate (544.6 g/L) and Agnique MBL 520L surfactant (52.9 g/L). […] The concentrated stock solution was diluted with an aqueous mixture of 1.5% v/v of Agri-dex crop oil concentrate to provide the appropriate application rates. Compound requirements are based upon a 12 milliliter (mL) application volume at a rate of 187 liters per hectare (L/ha). Spray solutions of the experimental compound mixtures were prepared by adding the stock solutions to the appropriate amount of dilution solution to form a 12 mL spray solution in two-way combinations. Formulated compounds were applied to the plant material with an overhead Mandel track sprayer equipped with 8002E nozzles calibrated to deliver 187 L/ha over an application area of 0.503 square meters (m^2) at a spray height of 18 inches (43 centimeters (cm)) above average plant canopy. Control plants were sprayed in the same manner with the solvent blank. Application rates for component (a) are in g ae/ha, and application rates for component (b) are in g ai/ha.
(§3) The treated plants and control plants were placed in a greenhouse as described above and watered by sub-irrigation to prevent wash-off of the test compounds. After 20-22 d, the condition of the test plants as compared with that of the control plants was determined visually and scored on a scale of 0 to 100 percent where 0 corresponds to no injury and 100 corresponds to complete kill. […] The Colby method was used to determine the herbicidal effects expected from the mixtures.

[2] = system: chickweed (Stellaria media, STEME); conditions: post-emergence, read-out: Effect (% visual injury) Obs
Procedure: as §1, §2, §3

[3] = system: winter rape (Brassica napus, BRSNW); conditions: post-emergence, read-out: Effect (% visual injury) Obs
Procedure: as §1, §2, §3

[4] = system: rice (Oryza sativa, ORYSA); conditions: post-emergence, read-out: Effect (% visual injury) Obs
Procedure: (§4) The plants were grown for 7-36 days (d) in a greenhouse with an approximate 14-hour (h) photoperiod which was maintained at about 23° C. during the day and 22° C. during the night. Nutrients and water were added on a regular basis and supplemental lighting was provided with overhead metal halide 1000-Watt lamps as necessary. The plants were employed for testing when they reached the second or third true leaf stage.
(§5) Spray solutions of the experimental compound mixtures were prepared by adding the stock solutions to the appropriate amount of dilution solution to form a 12 mL spray solution in two-way combinations. […] Control plants were sprayed in the same manner with the solvent blank. Application rates for component (a) are in g ae/ha, and application rates for component (b) are in g ai/ha.
as §3

[5] = system: large crabgrass (Digitaria sanguinalis, DIGSA); conditions: post-emergence, read-out: Effect (% visual injury) Obs
Procedure: as §4, §5, §3

[6] = system: pigweed (Amaranthus retroflexus, AMARE); conditions: post-emergence, read-out: Effect (% visual injury) Obs
Procedure: as §4, §5, §3

[7] = system: wild buckwheat (Polygonum convolvulus, POLCO); conditions: Fallopia convolvulus, post-emergence, read-out: Effect (% visual injury) Obs
Procedure: as §4, §5, §3

[8] = system: wild pansy (Viola tricolor, VIOTR); conditions: post-emergence, read-out: Effect (% visual injury) Obs
Procedure: as §4, §5, §3

[9] = system: giant foxtail (Setaria faberi, SETFA); conditions: post-emergence, read-out: Effect (% visual injury) Obs
Procedure: as §4, §5, §3

[10] = system: barnyardgrass (Echinochloa crus-galli, ECHCG); conditions: post-emergence, read-out: Effect (% visual injury) Obs
Procedure: as §4, §5, §3

[11] = system: blackgrass (Alopecurus myosuroides, ALOMY); conditions: post-emergence, read-out: Effect (% visual injury) Obs
Procedure: as §4, §5, §3

maize (Zea mays, ZEAMX) = conditions: post-emergence, read-out: Effect (% visual injury) Obs
Procedure: as §4, §5, §3

[12] = system: velvetleaf (Abutilon theophrasti, ABUTH); conditions: post-emergence, read-out: Effect (% visual injury) Obs
Procedure: as §4, §5, §3

[13] = system: wild oat (Avena fatua, AVEFA); conditions: post-emergence, read-out: Effect (% visual injury) Obs
Procedure: as §4, §5, §3

[14] = system: winter wheat (Triticum aestivum, TRZAW); conditions: post-emergence, read-out: Effect (% visual injury) Obs
Procedure: as §4, §5, §3

[15] = system: sunflower (Helianthus annuus, HELAN); conditions: post-emergence, read-out: Effect (% visual injury) Obs
Procedure: as §4, §5, §3

[16] = system: common lambsquarters (Chenopodium album L., CHEAL); conditions: post-emergence, read-out: Effect (% visual injury) Obs
Procedure: as §4, §5, §3

[17] = system: soybean (Glycine max, GLXMA); conditions: post-emergence, read-out: Effect (% visual injury) Obs
Procedure: as §4, §5, §3

[18] = system: grain sorghum (Sorghum vulgare, SORVU); conditions: post-emergence, read-out: Effect (% visual injury) Obs
Procedure: as §4, §5, §3

[19] = system: kochia (Kochia scoparia, KCHSC); conditions: Tralkoxydim 200 g ai/ha
Procedure: as §1, §2, §3

## CCCCOC(=O)[C@@H](C)Oc1ccc(Oc2ccc(C(F)(F)F)cn2)cc1 [Fluazifop-butyl]
[1]; Fluazifop-butyl 105 g ai/ha
  Effect (% visual injury) Obs: 0%
[2]
  pest or weed control at 105 g/ha: 0%
[3]
  plant injury at 105 g/ha: 0%
[4]
  plant injury at 105 g/ha: 85%
[5]
  pest or weed control at 105 g/ha: 95%
[6]
  pest or weed control at 105 g/ha: 0%
[7]
  pest or weed control at 105 g/ha: 0%
[8]
  pest or weed control at 105 g/ha: 0%
[9]
  pest or weed control at 105 g/ha: 97%
[10]
  pest or weed control at 105 g/ha: 100%
[11]
  pest or weed control at 105 g/ha: 20%
Maize (Zea mays, ZEAMX)
  plant injury at 105 g/ha: 100%
[12]
  pest or weed control at 105 g/ha: 0%
[13]
  pest or weed control at 105 g/ha: 95%
[14]
  plant injury at 105 g/ha: 90%

## COC(=O)[C@@H](C)Oc1ccc(Oc2ncc(C(F)(F)F)cc2Cl)cc1 [Haloxyfop-P-methyl]
[1]; Haloxyfop-P-methyl 70 g ai/ha
  Effect (% visual injury) Obs: 0%
[2]
  pest or weed control at 70 g/ha: 0%
[3]
  plant injury at 70 g/ha: 0%
[15]
  plant injury at 70 g/ha: 0%
[16]
  pest or weed control at 70 g/ha: 0%
[4]
  plant injury at 70 g/ha: 100%
[5]
  pest or weed control at 70 g/ha: 100%
[6]
  pest or weed control at 70 g/ha: 0%
[7]
  pest or weed control at 70 g/ha: 0%
[8]
  pest or weed control at 70 g/ha: 0%
[17]
  plant injury at 70 g/ha: 0%
[10]
  pest or weed control at 70 g/ha: 100%
[11]
  pest or weed control at 70 g/ha: 97%
Maize (Zea mays, ZEAMX)
  plant injury at 70 g/ha: 100%
[12]
  pest or weed control at 70 g/ha: 0%
[18]
  plant injury at 70 g/ha: 100%
[14]
  plant injury at 70 g/ha: 100%

## CCc1cc(C)cc(CC)c1-c1c(OC(=O)C(C)(C)C)n2n(c1=O)CCOCC2 [Pinoxaden]
[2]; Pinoxaden 30 g ai/ha
  pest or weed control at 30 g/ha: 0%
[15]; Pinoxaden 30 g ai/ha
  plant injury: 0%
[16]; Pinoxaden 30 g ai/ha
  pest or weed control: 0%
[4]; Pinoxaden 30 g ai/ha
  plant injury: 99%
[5]; Pinoxaden 30 g ai/ha
  pest or weed control: 10%
[6]; Pinoxaden 30 g ai/ha
  pest or weed control: 0%
[7]; Pinoxaden 30 g ai/ha
  pest or weed control: 0%
[8]; Pinoxaden 30 g ai/ha
  pest or weed control: 0%
[9]; Pinoxaden 30 g ai/ha
  pest or weed control: 0%
[17]; Pinoxaden 30 g ai/ha
  plant injury: 0%
[10]; Pinoxaden 30 g ai/ha
  pest or weed control: 100%
Maize (Zea mays, ZEAMX); Pinoxaden 30 g ai/ha
  plant injury: 10%
[12]; Pinoxaden 30 g ai/ha
  pest or weed control: 0%
[13]; Pinoxaden 30 g ai/ha
  pest or weed control: 95%
[18]; Pinoxaden 30 g ai/ha
  plant injury: 100%
[14]; Pinoxaden 30 g ai/ha
  plant injury: 0%

## CCOC(=O)[C@@H](C)Oc1ccc(Oc2cnc3cc(Cl)ccc3n2)cc1 [Quizalofop-P-ethyl]
[15]
  plant injury at 75 g/ha: 0%
[16]
  pest or weed control at 75 g/ha: 0%
[4]
  plant injury at 75 g/ha: 100%
[5]
  pest or weed control at 75 g/ha: 100%
[6]
  pest or weed control at 75 g/ha: 0%
[7]
  pest or weed control at 75 g/ha: 0%
[8]
  pest or weed control at 75 g/ha: 0%
[9]
  pest or weed control at 75 g/ha: 100%
[17]
  plant injury at 75 g/ha: 0%
[10]
  pest or weed control at 75 g/ha: 100%
[11]
  pest or weed control at 75 g/ha: 100%
Maize (Zea mays, ZEAMX)
  plant injury at 75 g/ha: 100%
[12]
  pest or weed control at 75 g/ha: 0%
[13]
  pest or weed control at 75 g/ha: 98%
[18]
  plant injury at 75 g/ha: 100%
[14]
  plant injury at 75 g/ha: 99%

## CCON=C(CC)C1=C(O)CC(c2c(C)cc(C)cc2C)CC1=O (stereo not drawn) [Tralkoxydim, 2-[1-(ethoxyimino)propyl]-3-hydroxy-5-mesitylcyclohex-2-enone]
[19]
  Effect (% visual injury) Obs: 0%
[1]; Tralkoxydim 200 g ai/ha
  Effect (% visual injury) Obs: 0%
[2]
  pest or weed control at 200 g/ha: 10%
[3]
  plant injury at 200 g/ha: 0%
[16]
  pest or weed control at 200 g/ha: 5%
[4]
  plant injury at 200 g/ha: 75%
[5]
  pest or weed control at 200 g/ha: 50%
[6]
  pest or weed control at 200 g/ha: 0%
[7]
  pest or weed control at 200 g/ha: 0%
[8]
  pest or weed control at 200 g/ha: 5%
[9]
  pest or weed control at 200 g/ha: 0%
[17]
  plant injury at 200 g/ha: 0%
[10]
  pest or weed control at 200 g/ha: 30%
Maize (Zea mays, ZEAMX)
  plant injury at 200 g/ha: 100%
[12]
  pest or weed control at 200 g/ha: 0%
[13]
  pest or weed control at 200 g/ha: 100%
[18]
  plant injury at 200 g/ha: 60%
